According to PMC9235172, “SHTXTHHly, an extracellular secretion platform for the preparation of bioactive peptides and proteins in Escherichia coli” (Microbial Cell Factories, 2022):
Residues, ends and D or L forms follow the SMILES beside them.

Legend:
E. coli 25922 = E. coli 25922 in MHB, 37 °C, 18 h, OD600, triplicate
Description: Fig. 4 Bioactivities determination of the produced AMPs. Different concentrations (0–4000 nM) of cCeA and rCeA (A), or cLL37 and rLL37 (B), were incubated with E. coli 25,922 at 37 °C for 18 h, then the OD600 values were detected. Different concentrations (0–64 μM) of cA12 and rA12 (C) were incubated with U87 MG cells for 8 h, and the number of live cells was measured with the CCK-8 reagent.
Overnight cultures of E. coli 25922 were diluted with fresh Mueller–Hinton Broth (MHB) to an optical density at 600 nm (OD600) at 0.1 and further diluted at 1:100 with fresh MHB. Then 100 μL bacterial suspension was added in triplicate to the 96-well plate. The commercial (APeptides, China) and bio-produced Cecropin A or LL37 were serially diluted with MHB medium and added into the 96-well plate to final concentrations of 2 to 2000 nM. The plate was incubated at 37 °C for 18 h, and the OD600 values were measured with Synergy LX multi-mode reader (BioTek, USA). Broth with bacterial inoculum without AMP and broth alone were used as control groups in which the relative biomass was set as 1 and 0, respectively.

Mo7e cells = experiment: Mo7e cell proliferation, CCK-8; format: cell-based; details: 1 pM-100 nM, 4 days, read-out: EC50, promotion of Mo7e cells' proliferation
Description: Fig. 5 Bioactivities determination of RGDS, IL-15, and ADH in the SHTXTHHly fusion form. U87 MG cells were incubated with SHTRGDSTHHly/SHTRGESTHHly, mouse anti-S tag antibody, and the second antibody in sequence, then the cell staining was measured by FACS (A). U87 MG cells were incubated with SHTRGDSTHHly/SHTRGESTHHly and transferred into a fibronectin-coated plate. At different times, the attached cells were subjected to the CCK-8 reagent for quantification (B). In other experiments, cells were stained with DiO dye (green) and observed with a fluorescence microscope (C). Mo7e cells were incubated with different concentrations (1 pM-100 nM) of IL-15 and SHTIL15THHly for 4 days, and the cell numbers were measured with a CCK-8 reagent (D). The activities of ADH and SHTADHTHHly were compared using Ethyl Acetoacetate as the substrate and NADH as the co-factor (E). The activity was measured at 340 nm to monitor the decrease in the absorbance of NADH quantitatively. S: Slope. […] PBS is a blank control.
Mo7e cells were plated in a 96-well plate with a cell number of twenty thousand per well. After 4 h incubation, serially diluted IL-15 and SHTIL15THHly were added. After 4 days of incubation, the proliferation of cells was measured using the CCK-8 reagent.

CC[C@H](C)[C@H](NC(=O)CNC(=O)[C@H](CC(=O)O)NC(=O)[C@H](CCCNC(=N)N)NC(=O)[C@@H](NC(=O)[C@H](CC(N)=O)NC(=O)[C@H](CCC(N)=O)NC(=O)CNC(=O)[C@@H](NC(=O)[C@H](CCCCN)NC(=O)[C@H](CCC(=O)O)NC(=O)[C@@H](NC(=O)[C@H](CCCCN)NC(=O)[C@H](CCCCN)NC(=O)[C@H](Cc1ccccc1)NC(=O)[C@H](CC(C)C)NC(=O)[C@H](CCCCN)NC(=O)[C@H](Cc1c[nH]c2ccccc12)NC(=O)[C@@H](N)CCCCN)[C@@H](C)CC)C(C)C)[C@@H](C)CC)C(=O)N[C@H](C(=O)N[C@@H](CCCCN)C(=O)N[C@@H](C)C(=O)NCC(=O)N1CCC[C@H]1C(=O)N[C@@H](C)C(=O)N[C@H](C(=O)N[C@@H](C)C(=O)N[C@H](C(=O)N[C@H](C(=O)NCC(=O)N[C@@H](CCC(N)=O)C(=O)N[C@@H](C)C(=O)N[C@H](C(=O)N[C@@H](CCC(N)=O)C(=O)N[C@H](C(=O)N[C@@H](C)C(=O)N[C@@H](CCCCN)C(=O)O)[C@@H](C)CC)[C@@H](C)O)C(C)C)C(C)C)C(C)C)[C@@H](C)CC [cCeA, Cecropin A] (H-KWKLFKKIEKVGQNIRDGIIKAGPAVAVVGQATQIAK-OH)
minimum inhibitory concentration (MIC) (E. coli 25922): 0.85 µM

CC[C@H](C)[C@H](NC(=O)[C@H](CCCCN)NC(=O)[C@H](CCC(=O)O)NC(=O)[C@H](CCCCN)NC(=O)[C@H](CO)NC(=O)[C@H](CCCCN)NC(=O)[C@H](CCCNC(=N)N)NC(=O)[C@H](Cc1ccccc1)NC(=O)[C@H](Cc1ccccc1)NC(=O)[C@H](CC(=O)O)NC(=O)CNC(=O)[C@H](CC(C)C)NC(=O)[C@@H](N)CC(C)C)C(=O)NCC(=O)N[C@@H](CCCCN)C(=O)N[C@@H](CCC(=O)O)C(=O)N[C@@H](Cc1ccccc1)C(=O)N[C@@H](CCCCN)C(=O)N[C@@H](CCCNC(=N)N)C(=O)N[C@H](C(=O)N[C@H](C(=O)N[C@@H](CCC(N)=O)C(=O)N[C@@H](CCCNC(=N)N)C(=O)N[C@H](C(=O)N[C@@H](CCCCN)C(=O)N[C@@H](CC(=O)O)C(=O)N[C@@H](Cc1ccccc1)C(=O)N[C@@H](CC(C)C)C(=O)N[C@@H](CCCNC(=N)N)C(=O)N[C@@H](CC(N)=O)C(=O)N[C@@H](CC(C)C)C(=O)N[C@H](C(=O)N1CCC[C@H]1C(=O)N[C@@H](CCCNC(=N)N)C(=O)N[C@H](C(=O)N[C@@H](CCC(=O)O)C(=O)N[C@@H](CO)C(=O)O)[C@@H](C)O)C(C)C)[C@@H](C)CC)C(C)C)[C@@H](C)CC [cL3, LL37]
minimum inhibitory concentration (MIC) (E. coli 25922): 1.87 µM

IL-15: control monomeric IL-15
EC50 (Mo7e cells): 0.294 nM
